Test results taken from patent US20260078118A1, “COMBINED PRODUCT, SALT AND USE THEREOF” (SHANGHAI HENLIUS BIOTECH, INC., priority 2023, published 2026).
Structures can show the parent of a compound that is named as a salt.

Tests used:
[1] = system: mice subjected to intragastric administration of α-naphthylisothiocyanate (ANIT); experiment: ANIT mouse model, serological indicators; assay type: in vivo, C57BL/6 mice; details: vs. ANIT model group
Text: In order to verify the technical effects observed in the in vitro cell models, this experiment further examined the effects of compound Y and compound B on serological indicators in a mouse model subjected to intragastric administration of α-naphthylisothiocyanate (ANIT). Fifty-four female C57BL/6 mice aged 6-8 weeks were purchased from Shanghai Lingchang Biotechnology Co., Ltd. After one week of acclimatization, the mice were divided into 6 groups according to body weight, and this time point was designated as day −3. The test compound in each group was intragastrically administered starting from day −3. After three consecutive days of administration, modeling was performed by intragastric administration of ANIT at a dose of 50 mg/kg, and this time point was designated as day 0. During modeling, the healthy group (control) received a single oral dose of pure olive oil. Throughout the entire experimental period, both the healthy group (control) and the model group (ANIT) were given corresponding doses of vehicle (sodium carboxymethylcellulose) according to body weight. The mice were observed daily for health status and body weight changes. The experimental endpoint was day 2; prior to euthanasia, the mice were fasted for 6 h, and cardiac blood collection and liver sample acquisition were performed under anesthesia. The primary indicators were serological changes including AST, ALT, and ALP.
In order to verify the technical effects observed in the DDC model, this experiment further examined the effects of various compound combinations on serological indicators in a mouse model subjected to intragastric administration of α-naphthylisothiocyanate (ANIT). Fifty-six female C57BL/6 mice aged 6-8 weeks were purchased from Shanghai Lingchang Biotechnology Co., Ltd. After one week of acclimatization, the mice were divided into 7 groups according to body weight, and this time point was designated as day −3. The compound in each group was intragastrically administered starting from day −3. After three consecutive days of administration, modeling was performed by intragastric administration of ANIT at a dose of 50 mg/kg, and this time point was designated as day 0. The normal control group received a single oral dose of pure olive oil. Throughout the entire experimental period, both the healthy group (control) and the model group (ANIT) were given corresponding doses of vehicle (sodium carboxymethylcellulose) according to body weight. The mice were observed daily for health status and body weight changes. The experimental endpoint was day 2; prior to euthanasia, the mice were fasted for 6 h, and cardiac blood collection and liver sample acquisition were performed under anesthesia. The primary indicators were serological changes including AST, ALT, and ALP.

HepG2 cells = experiment: Protection of hepatocytes from deoxycholic acid (DCA)-induced cell damage, CCK8 viability; assay type: cell-based; details: then 1 mM DCA 4 h; for cell viability: compound N 50 μM for 24 h, vs. DCA-treated group
Protocol: (§1) First, 2.5×10^4 HepG2 cells were seeded in a 96-well flat-bottom plate with an MEM medium containing 10% fetal bovine serum. The cells were cultured overnight in an incubator at 37° C. with 5% CO2 for adhesion. Subsequently, various compounds at corresponding concentrations (compound Y: 100 μM; compound B: 100 μM; compound N: 50 μM) were incubated with the HepG2 cells in the incubator at 37° C. with 5% CO2 for 24 h. All groups, except for the blank control group, were treated with 1 mM deoxycholic acid (DCA, a secondary bile acid that can directly induce hepatocyte damage) for 4 h. All groups were supplemented with 10 μL of CCK8 reagent and incubated under the incubator conditions for 1 h. The absorbance was measured at a wavelength of 450 nm using a microplate reader, which indirectly reflected the number of viable cells. All data were calculated and presented as percentages relative to the absorbance measured in the blank control group not treated with deoxycholic acid.
as §1, with “Y: 50” for “Y: 100 μM; compound B: 100”, “N: 50 µM; compound combination Y+N: 50 μM+50 μM (molar ratio: 1:1); YN salt:” for “N:”, “h. Then, the” for “h. The”
as §1, with “µM;” for “μM; compound B: 100 μM;”, “µM; compound combination Y+N: 100 μM+50 μM (molar ratio: 2:1))” for “μM)”
First, 2.5×10^4 HepG2 cells were seeded in a 96-well flat-bottom plate with an MEM medium containing 10% fetal bovine serum. The cells were cultured overnight in an incubator at 37° C. with 5% CO2 for adhesion. […] The absorbance was measured at a wavelength of 450 nm using a microplate reader, which indirectly reflected the number of viable cells. […]

[2] = system: mice fed with feed containing 0.1% DDC (DDC model); experiment: DDC model, serological indicators and liver pathology; assay type: in vivo, C57BL/6 mice; details: Example 12, FIG. 17; U 100 mg/kg, combinations 100+100 mg/kg; vs. DDC model group
Text: Seventy-one male C57BL/6 mice aged 10 weeks were purchased from Shanghai Lingchang Biotechnology Co., Ltd. […] The compound in each group was intragastrically administered starting from day 0. Throughout the entire experimental period, both the healthy group (control) and the model group (DDC) were given corresponding doses of vehicle (sodium carboxymethylcellulose) according to body weight. The mice were observed daily for health status and body weight changes. The experimental endpoint was day 20. Prior to euthanasia, the mice were fasted for 6 h, and cardiac blood collection and liver sample acquisition were performed under anesthesia. The primary indicators were serological changes including AST, ALT, and ALP; pathological analysis was performed by HE staining. The specific grouping and the administration dose for each group are shown in the table below: Fifty-six male C57BL/6 mice aged 10 weeks were purchased from Shanghai Lingchang Biotechnology Co., Ltd. […] The compound in each group was intragastrically administered starting from day 0. Throughout the entire experimental period, both the healthy group (control) and the model group (DDC) were given corresponding doses of vehicle (sodium carboxymethylcellulose) according to body weight. The mice were observed daily for health status and body weight changes. The experimental endpoint was day 20. […]

CD8-positive T cells = experiment: Proliferation of CD8-positive T cells from Anti-CD3/CD28-stimulated PBMCs (CellTrace, flow cytometry); assay type: cell-based, human; details: FIG. 6; compound Y 200 μM, Y+N 200 μM+100 μM, 72 h; vs. DMSO control
Protocol: (§2) First, a certain amount of human peripheral blood mononuclear cells (PBMCs) were incubated with 5 μM CellTrace cell proliferation assay reagent in an incubator at 37° C. with 5% CO2 in the dark for 20 min. Then, 1.5×10^5 CellTrace-stained PBMCs were seeded in a 96-well U-bottom plate and treated with Anti-CD3/CD28 antibody-coupled magnetic beads at a ratio of 1:1 (cell count:magnetic bead count) to induce differentiation into T cells. Subsequently, various compounds at corresponding concentrations (compound Y: 200 µM; compound N: 100 µM; compound combination Y+N: 200 μM+100 μM; control group: UDCA (100 μM)) were co-incubated with the above-treated cells in the incubator at 37° C. with 5% CO2 for 72 h, followed by analysis by a flow cytometer. Specifically, the test cells were first treated with a Live/dead dye (633 nm, 1:1000 dilution) at 4° C. for 30 min to distinguish dead cells from live cells. Subsequently, the above test cells were simultaneously co-incubated with wavelength dyes anti-CD45-PerCPCy5.5, anti-CD4-AF700, and anti-CD8-FITC at room temperature for 30 min to distinguish different series of T cells (CD4-positive T cells and CD8-positive T cells). After appropriate washing, the above-stained cells were analyzed by a flow cytometer at different wavelengths. […] Proliferation of CD4-positive and CD8-positive T cells was determined by the fluorescence of CellTrace dye.

CD4-positive T cells = experiment: Proliferation of CD4-positive T cells from Anti-CD3/CD28-stimulated PBMCs (CellTrace, flow cytometry); assay type: cell-based, human; details: FIG. 5; compound Y 200 μM, Y+N 200 μM+100 μM, 72 h; vs. DMSO control
Protocol: as §2

[3] = Example 9, FIG. 9, 100 and 50 mg/kg intragastric twice daily
[4] = Example 4, FIG. 1, compound Y 100 μM, compound B 100 μM

Structure (SMILES): COc1ccc2cc3[n+](cc2c1OC)CCc1cc2c(cc1-3)OCO2 [Compound B, Berberine hydrochloride]
- serum alkaline phosphatase (ALP) levels ([1]; Example 9, FIG. 7, 100 and 50 mg/kg intragastric twice daily): increased serum ALP levels in a dose-dependent manner
- serum ALT levels ([1]; Example 9, FIG. 8, 100 and 50 mg/kg intragastric twice daily): increased serum ALT levels in a dose-dependent manner
- serum AST levels [1, 3]: increased serum AST levels in a dose-dependent manner
- cell viability (HepG2 cells; [4]): highly significant increase in cell viability

Structure (SMILES): C[C@H](CC(=O)O)[C@H]1CC[C@H]2[C@@H]3[C@@H](O)C[C@@H]4C[C@H](O)CC[C@]4(C)[C@H]3CC[C@]12C [Compound N, 24-Norursodeoxycholic acid]
- cell viability (HepG2 cells; [4]): trend toward improved cell viability, but the trend was not significant
- cell viability (HepG2 cells; Example 5, FIG. 2): trend toward improved cell viability, but the trend was not significant

Structure (SMILES): C[C@H](CCC(=O)O)[C@H]1CC[C@H]2[C@@H]3[C@@H](O)C[C@@H]4C[C@H](O)CC[C@]4(C)[C@H]3CC[C@]12C [U, Ursodeoxycholic acid]
- serum alkaline phosphatase (ALP) levels ([1]; Example 10, FIG. 10, U 100 mg/kg intragastric twice daily): reduced serum alkaline phosphatase (ALP) levels
- serum ALT levels ([1]; Example 10, FIG. 11, U 100 mg/kg, Y+N 100+50 mg/kg intragastric twice daily): significantly increased serum ALT levels
- serum AST levels ([1]; Example 10, FIG. 12, U 100 mg/kg, Y+N 100+50 mg/kg intragastric twice daily): significantly increased serum AST levels
- bile pigment-positive area of the liver [2]: significant reduction in the bile pigment-positive area of the liver

Structure (SMILES): COc1cc2cc3[n+](cc2cc1OC)CCc1cc2c(cc1-3)OCO2 [Compound Y]
- serum alkaline phosphatase (ALP) levels ([1]; Example 9, FIG. 7, 50 mg/kg intragastric twice daily, day -3 to day 2): reduced serum ALP levels
- serum alkaline phosphatase (ALP) levels ([1]; Example 9, FIG. 7, 100 mg/kg intragastric twice daily, day -3 to day 2): significantly reduced serum alkaline phosphatase (ALP) levels
- serum ALT levels ([1]; Example 9, FIG. 8, 50 mg/kg intragastric twice daily): reduced serum ALT levels
- serum ALT levels ([1]; Example 9, FIG. 8, 100 mg/kg intragastric twice daily): significantly reduced serum ALT levels
- serum AST levels [1, 3]: reduced serum AST levels in a dose-dependent manner
- cell viability (HepG2 cells; [4]): highly significant increase in cell viability
- cell viability (percentage relative to blank control) (HepG2 cells; Example 5, FIG. 2, compound Y 50 μM, Y+N 50 μM+50 μM (1:1), YN salt 50 μM for 24 h): 72%
- proliferation of CD8-positive T cells (CD8-positive T cells): significantly inhibited
- proliferation of CD4-positive T cells (CD4-positive T cells): significantly inhibited
